Data published in patent publication US11629143B2, “HipK4 inhibitors and uses thereof” (Vibliome Therapeutics, LLC, priority 2020, dated 2023).

What was measured:
Assay in all cases: Kinase panel (mobility shift)
Assay type in all cases: biochemical
[1] = target: PDGFR-b (Homo sapiens, UniProt P09619)
Summary of the method: (§1)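 Compound at 5 um + kinase + fluor-labeled substrate, standardized mix; rxn stopped; electrophoretic separation of product/substrate on chip; activity = product vs substrate peak fluorescence. Bins A ≥95%, B 90-94%, C 80-89%.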

[2] = target: PDGFR-a (Homo sapiens, UniProt P16234)
Summary of the method: as §1

[3] = target: HIPK3 (Homo sapiens, UniProt Q9H422)
Summary of the method: as §1

[4] = target: EPH-A5 (Homo sapiens, UniProt P54756); conditions: at 5 um
Summary of the method: as §1

[5] = target: TIE2 (Homo sapiens, UniProt Q02763)
Summary of the method: as §1

[6] = target: P38-b (Homo sapiens, UniProt Q15759)
Summary of the method: as §1

[7] = target: SRC (Homo sapiens, UniProt P12931)
Summary of the method: as §1

[8] = target: LCK (Homo sapiens, UniProt P06239)
Summary of the method: as §1

[9] = target: T1, HIPK4 (Homo sapiens, UniProt Q8NE63)
T1 sequence (Q8NE63 1-616): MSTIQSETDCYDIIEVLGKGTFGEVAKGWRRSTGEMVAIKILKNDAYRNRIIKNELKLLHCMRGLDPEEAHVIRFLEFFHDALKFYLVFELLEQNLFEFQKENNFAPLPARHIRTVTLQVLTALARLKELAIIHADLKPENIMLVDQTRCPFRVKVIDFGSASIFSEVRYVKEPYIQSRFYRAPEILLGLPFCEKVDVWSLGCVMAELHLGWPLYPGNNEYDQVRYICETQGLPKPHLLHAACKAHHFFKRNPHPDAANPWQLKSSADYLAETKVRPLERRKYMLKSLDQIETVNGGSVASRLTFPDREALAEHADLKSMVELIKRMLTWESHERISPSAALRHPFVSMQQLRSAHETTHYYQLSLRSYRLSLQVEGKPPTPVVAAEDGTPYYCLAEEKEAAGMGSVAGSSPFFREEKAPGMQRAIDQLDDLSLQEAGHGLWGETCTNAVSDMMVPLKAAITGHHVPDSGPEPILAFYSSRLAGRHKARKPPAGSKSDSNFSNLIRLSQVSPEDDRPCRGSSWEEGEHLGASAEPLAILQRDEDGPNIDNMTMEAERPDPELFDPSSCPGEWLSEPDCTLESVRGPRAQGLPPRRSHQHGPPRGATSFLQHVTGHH
Summary of the method: as §1

[10] = target: T2, MER (Homo sapiens, UniProt Q12866)
T2 sequence (Q12866 21-999): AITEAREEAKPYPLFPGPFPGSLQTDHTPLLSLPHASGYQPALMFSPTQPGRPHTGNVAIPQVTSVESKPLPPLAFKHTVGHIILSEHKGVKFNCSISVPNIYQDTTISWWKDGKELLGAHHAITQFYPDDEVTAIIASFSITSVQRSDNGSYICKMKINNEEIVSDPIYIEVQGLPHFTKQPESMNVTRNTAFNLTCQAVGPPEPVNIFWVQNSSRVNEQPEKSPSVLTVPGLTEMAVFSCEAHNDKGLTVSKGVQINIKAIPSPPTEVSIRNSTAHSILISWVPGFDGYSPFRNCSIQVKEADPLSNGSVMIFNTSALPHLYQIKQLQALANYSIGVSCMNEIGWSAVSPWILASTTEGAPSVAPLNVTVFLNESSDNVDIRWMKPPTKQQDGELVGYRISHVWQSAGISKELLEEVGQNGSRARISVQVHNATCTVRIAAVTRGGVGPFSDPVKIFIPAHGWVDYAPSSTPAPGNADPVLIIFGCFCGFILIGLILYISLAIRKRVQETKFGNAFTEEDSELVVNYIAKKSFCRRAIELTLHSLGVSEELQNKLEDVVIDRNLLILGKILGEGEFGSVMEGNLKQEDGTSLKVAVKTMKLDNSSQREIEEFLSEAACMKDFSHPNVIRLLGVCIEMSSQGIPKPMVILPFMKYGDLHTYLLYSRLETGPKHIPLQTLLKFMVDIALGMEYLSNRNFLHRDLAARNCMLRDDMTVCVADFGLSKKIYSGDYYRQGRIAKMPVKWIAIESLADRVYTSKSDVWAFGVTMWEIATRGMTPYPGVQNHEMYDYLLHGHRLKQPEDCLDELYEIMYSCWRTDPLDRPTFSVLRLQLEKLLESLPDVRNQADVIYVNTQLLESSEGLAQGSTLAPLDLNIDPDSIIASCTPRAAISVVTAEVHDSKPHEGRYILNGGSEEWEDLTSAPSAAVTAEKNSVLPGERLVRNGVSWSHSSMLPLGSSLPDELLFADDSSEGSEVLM
Summary of the method: as §1

Chain of EPH-A5 (P54756 25-1037, species assumed): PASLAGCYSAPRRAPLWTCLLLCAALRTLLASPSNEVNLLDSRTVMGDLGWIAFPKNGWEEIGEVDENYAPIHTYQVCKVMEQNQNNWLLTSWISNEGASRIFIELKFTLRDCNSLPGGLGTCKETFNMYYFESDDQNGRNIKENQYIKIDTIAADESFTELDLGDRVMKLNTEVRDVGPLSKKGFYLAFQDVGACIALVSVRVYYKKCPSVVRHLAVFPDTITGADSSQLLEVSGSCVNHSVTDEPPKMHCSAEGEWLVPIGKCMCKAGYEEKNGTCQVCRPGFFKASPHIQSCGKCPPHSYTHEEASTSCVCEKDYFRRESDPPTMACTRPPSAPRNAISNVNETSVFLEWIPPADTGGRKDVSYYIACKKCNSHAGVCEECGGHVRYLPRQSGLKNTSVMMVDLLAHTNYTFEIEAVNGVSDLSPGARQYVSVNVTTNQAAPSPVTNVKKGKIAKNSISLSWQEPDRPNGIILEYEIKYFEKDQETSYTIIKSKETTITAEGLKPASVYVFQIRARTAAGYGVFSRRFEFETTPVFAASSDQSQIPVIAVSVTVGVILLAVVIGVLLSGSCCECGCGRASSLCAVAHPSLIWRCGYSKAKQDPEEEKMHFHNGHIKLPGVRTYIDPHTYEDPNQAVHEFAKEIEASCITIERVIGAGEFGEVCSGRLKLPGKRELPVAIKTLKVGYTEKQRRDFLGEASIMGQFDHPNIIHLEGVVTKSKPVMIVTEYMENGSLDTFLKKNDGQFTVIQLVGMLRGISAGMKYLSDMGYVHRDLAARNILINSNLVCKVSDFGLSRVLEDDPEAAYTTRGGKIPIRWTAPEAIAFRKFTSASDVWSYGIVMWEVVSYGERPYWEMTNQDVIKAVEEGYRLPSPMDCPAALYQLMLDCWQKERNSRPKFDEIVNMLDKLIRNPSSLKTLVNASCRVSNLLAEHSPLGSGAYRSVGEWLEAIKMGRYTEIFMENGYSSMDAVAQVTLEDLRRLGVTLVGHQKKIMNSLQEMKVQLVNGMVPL
Chain of PDGFR-a (P16234 24-1089, species assumed): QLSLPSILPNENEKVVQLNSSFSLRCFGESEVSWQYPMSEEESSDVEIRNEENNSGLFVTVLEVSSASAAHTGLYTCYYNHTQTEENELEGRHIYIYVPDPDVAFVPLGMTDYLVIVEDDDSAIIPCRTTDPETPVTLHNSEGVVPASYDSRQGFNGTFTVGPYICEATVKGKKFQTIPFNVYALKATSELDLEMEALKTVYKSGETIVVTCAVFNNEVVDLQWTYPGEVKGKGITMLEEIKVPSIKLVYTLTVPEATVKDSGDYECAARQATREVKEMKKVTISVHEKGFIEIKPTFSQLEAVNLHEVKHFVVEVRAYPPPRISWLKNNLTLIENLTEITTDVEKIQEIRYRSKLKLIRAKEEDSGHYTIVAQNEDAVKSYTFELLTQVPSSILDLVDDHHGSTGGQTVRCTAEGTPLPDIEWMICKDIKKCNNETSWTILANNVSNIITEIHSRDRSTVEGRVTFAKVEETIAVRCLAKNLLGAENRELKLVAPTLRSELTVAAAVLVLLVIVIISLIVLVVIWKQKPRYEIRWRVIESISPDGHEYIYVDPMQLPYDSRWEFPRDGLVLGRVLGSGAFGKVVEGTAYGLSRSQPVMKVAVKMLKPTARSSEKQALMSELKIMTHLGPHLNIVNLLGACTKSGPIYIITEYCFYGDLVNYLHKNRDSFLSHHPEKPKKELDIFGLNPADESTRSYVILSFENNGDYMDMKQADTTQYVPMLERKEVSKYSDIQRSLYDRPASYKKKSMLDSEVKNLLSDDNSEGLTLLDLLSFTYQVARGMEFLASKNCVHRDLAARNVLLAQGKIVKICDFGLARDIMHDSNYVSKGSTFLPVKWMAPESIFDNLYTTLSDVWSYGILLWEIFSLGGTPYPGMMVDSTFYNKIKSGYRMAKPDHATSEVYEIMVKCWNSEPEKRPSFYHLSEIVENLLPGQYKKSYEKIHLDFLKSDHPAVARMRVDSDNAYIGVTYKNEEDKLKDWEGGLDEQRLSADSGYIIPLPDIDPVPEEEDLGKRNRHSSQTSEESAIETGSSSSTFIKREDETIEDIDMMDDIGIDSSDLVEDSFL
Chain of LCK (P06239 whole entry, species assumed): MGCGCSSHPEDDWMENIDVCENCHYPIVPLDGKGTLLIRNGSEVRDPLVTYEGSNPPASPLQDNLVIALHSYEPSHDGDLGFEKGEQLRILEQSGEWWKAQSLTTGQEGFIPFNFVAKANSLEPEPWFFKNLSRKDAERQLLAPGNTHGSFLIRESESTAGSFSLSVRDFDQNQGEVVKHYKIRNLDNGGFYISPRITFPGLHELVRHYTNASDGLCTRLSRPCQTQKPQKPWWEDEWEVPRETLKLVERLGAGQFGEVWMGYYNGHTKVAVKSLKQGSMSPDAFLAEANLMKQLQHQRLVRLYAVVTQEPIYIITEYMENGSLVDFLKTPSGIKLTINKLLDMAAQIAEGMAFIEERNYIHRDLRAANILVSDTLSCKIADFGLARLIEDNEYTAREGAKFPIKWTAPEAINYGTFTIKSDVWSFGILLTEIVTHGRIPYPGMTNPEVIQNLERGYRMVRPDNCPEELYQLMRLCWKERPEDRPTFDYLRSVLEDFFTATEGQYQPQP
Chain of PDGFR-b (P09619 33-1106, species assumed): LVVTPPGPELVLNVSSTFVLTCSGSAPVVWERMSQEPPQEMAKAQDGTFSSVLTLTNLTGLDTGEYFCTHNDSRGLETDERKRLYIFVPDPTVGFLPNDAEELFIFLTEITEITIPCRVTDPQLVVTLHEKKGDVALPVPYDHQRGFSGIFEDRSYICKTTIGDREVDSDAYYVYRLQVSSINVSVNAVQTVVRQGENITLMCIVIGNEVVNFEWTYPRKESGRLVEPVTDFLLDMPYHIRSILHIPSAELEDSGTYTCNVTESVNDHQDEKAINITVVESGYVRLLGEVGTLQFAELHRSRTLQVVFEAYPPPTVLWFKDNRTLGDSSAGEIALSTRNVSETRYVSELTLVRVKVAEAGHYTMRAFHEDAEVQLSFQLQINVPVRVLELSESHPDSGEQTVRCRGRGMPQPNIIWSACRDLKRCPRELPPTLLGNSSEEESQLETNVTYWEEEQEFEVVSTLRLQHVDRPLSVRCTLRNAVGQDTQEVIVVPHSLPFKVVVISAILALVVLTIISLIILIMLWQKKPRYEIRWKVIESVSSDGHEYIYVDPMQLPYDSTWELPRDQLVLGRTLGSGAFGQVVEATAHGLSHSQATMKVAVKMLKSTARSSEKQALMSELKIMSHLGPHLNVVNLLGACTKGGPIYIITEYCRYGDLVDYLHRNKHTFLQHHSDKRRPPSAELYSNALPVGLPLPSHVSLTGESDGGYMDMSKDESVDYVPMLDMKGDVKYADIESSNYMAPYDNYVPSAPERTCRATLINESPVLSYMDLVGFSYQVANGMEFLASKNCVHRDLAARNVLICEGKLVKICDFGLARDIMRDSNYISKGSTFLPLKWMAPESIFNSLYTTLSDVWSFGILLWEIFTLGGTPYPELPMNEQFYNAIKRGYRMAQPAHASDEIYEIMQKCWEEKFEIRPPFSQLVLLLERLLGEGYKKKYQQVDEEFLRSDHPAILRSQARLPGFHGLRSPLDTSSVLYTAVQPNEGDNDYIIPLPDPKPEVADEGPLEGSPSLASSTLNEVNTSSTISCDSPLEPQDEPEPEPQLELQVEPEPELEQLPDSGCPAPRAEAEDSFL
Chain of P38-b (Q15759 whole entry, species assumed): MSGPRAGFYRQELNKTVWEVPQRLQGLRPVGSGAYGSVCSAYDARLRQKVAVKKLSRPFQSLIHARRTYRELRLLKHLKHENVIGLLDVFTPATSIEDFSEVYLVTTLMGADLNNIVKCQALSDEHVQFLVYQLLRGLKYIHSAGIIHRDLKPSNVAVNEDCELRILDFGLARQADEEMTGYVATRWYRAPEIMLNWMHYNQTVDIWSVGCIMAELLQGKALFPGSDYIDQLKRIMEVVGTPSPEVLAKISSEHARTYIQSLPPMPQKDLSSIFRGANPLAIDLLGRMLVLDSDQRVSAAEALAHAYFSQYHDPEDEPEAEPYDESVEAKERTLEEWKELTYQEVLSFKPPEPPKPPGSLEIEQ
Chain of SRC (P12931 whole entry, species assumed): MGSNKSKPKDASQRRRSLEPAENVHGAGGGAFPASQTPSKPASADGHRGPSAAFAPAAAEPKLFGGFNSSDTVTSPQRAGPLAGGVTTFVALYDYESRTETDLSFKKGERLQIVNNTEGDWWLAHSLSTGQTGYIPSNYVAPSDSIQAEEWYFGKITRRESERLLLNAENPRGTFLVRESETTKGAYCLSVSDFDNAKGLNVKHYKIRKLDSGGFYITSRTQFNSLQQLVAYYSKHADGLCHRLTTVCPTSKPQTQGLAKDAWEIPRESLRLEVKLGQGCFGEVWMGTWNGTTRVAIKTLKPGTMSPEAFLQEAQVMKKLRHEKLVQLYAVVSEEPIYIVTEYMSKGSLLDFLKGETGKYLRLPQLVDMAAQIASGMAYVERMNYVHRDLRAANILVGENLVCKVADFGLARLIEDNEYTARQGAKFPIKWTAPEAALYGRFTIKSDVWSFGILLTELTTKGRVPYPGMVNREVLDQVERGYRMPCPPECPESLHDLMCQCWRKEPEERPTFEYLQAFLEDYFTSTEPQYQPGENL

Row | inhibition at 5 µM [1] [%] | inhibition at 5 µM [2] [%] | inhibition at 5 µM [3] [%] | inhibition of kinase activity, EPH-A5 [4] | inhibition at 5 µM [5] [%] | inhibition at 5 µM [6] [%] | inhibition at 5 µM [7] [%] | inhibition at 5 µM [8] [%] | inhibition at 5 µM [9] [%] | inhibition at 5 µM [10] [%] | Compound
1 | < 50 | 50 to 79 | 50 to 79 | C (C=80%-89% at 5 um) | 80 to 89 | 50 to 79 | 50 to 79 | 90 to 94 | ≥ 95 | 80 to 89 | CNC(=O)c1cc(Oc2ccc(NC(=O)c3nc(C4CC4)oc3-c3ccc(F)cc3)cc2F)ccn1 [Compound 26]
2 | < 50 | < 50 | < 50 | D (category D for 50-79) | < 50 | 80 to 89 | < 50 | 50 to 79 | ≥ 95 | 50 to 79 | CSc1nc(C(=O)Nc2ccc(Oc3ccnc(C(=O)NCCN(C)C)c3)c(F)c2)c(-c2ccc(F)cc2)o1 [Compound 41]
3 | < 50 | < 50 | 50 to 79 | E (category E is less than 50%) | < 50 | < 50 | < 50 | < 50 | 80 to 89 | < 50 | CNC(=O)c1ccc(Oc2ccc(NC(=O)c3nc(Cl)oc3-c3ccc(F)cc3)c(F)c2)cn1 [Compound 36]
4 | < 50 | < 50 | 50 to 79 | E (category E is less than 50%) | < 50 | < 50 | < 50 | 50 to 79 | ≥ 95 | < 50 | CNC(=O)c1cc(Oc2ccc(NC(=O)c3nc(OC)oc3-c3ccc(F)c(F)c3)cc2F)ccn1 [Compound 24]
5 | < 50 | < 50 | 50 to 79 | E (category E is less than 50%) | < 50 | 80 to 89 | < 50 | < 50 | ≥ 95 | < 50 | CSc1nc(C(=O)Nc2ccc(Oc3ccnc(C(=O)NC4CCN(C)CC4)c3)c(F)c2)c(-c2ccc(F)cc2)o1 [Compound 42]
6 | < 50 | < 50 | 50 to 79 | D (category D for 50-79) | 50 to 79 | 50 to 79 | 50 to 79 | 80 to 89 | ≥ 95 | 80 to 89 | CNC(=O)c1cc(Oc2ccc(NC(=O)c3nc(OC4CC4)oc3-c3ccc(F)cc3)cc2F)ccn1 [Compound 32]
7 | < 50 | < 50 | < 50 | E (category E is less than 50%) | < 50 | < 50 | < 50 | 50 to 79 | 90 to 94 | < 50 | CNC(=O)c1cc(Oc2ccc(NC(=O)c3nc(SC)oc3-c3ccc(Cl)s3)cc2)ccn1 [Compound 5]
8 | < 50 | < 50 | < 50 | E (category E is less than 50%) | < 50 | < 50 | < 50 | ≥ 95 | 90 to 94 | < 50 | CNC(=O)c1cc(Oc2ccc(NC(=O)c3nc(SC)oc3-c3ccc(OC)cc3)cc2)ccn1 [Compound 7]
9 | < 50 | 50 to 79 | 90 to 94 | C (C=80%-89% at 5 um) | 80 to 89 | 50 to 79 | 50 to 79 | 80 to 89 | ≥ 95 | 80 to 89 | CNC(=O)c1cc(Oc2ccc(NC(=O)c3nc(COC)oc3-c3ccc(F)cc3)cc2F)ccn1 [Compound 30]
10 | < 50 | < 50 | < 50 | E (category E is less than 50%) | < 50 | < 50 | < 50 | < 50 | ≥ 95 | < 50 | CNC(=O)c1cc(Oc2ccc(NC(=O)c3nc(SC)oc3-c3ccc(F)s3)cc2F)ccn1 [Compound 16]
11 | < 50 | < 50 | 50 to 79 | D (category D for 50-79) | 50 to 79 | < 50 | 50 to 79 | ≥ 95 | 90 to 94 | 80 to 89 | CNC(=O)c1cc(Oc2ccc(NC(=O)c3nc(SC)oc3-c3ccc(F)cc3F)cc2F)ccn1 [Compound 12]
12 | < 50 | < 50 | 50 to 79 | D (category D for 50-79) | 50 to 79 | < 50 | < 50 | < 50 | ≥ 95 | < 50 | CNC(=O)c1cc(Oc2ccc(NC(=O)c3nc(NC)sc3-c3ccc(F)cc3F)cc2F)ccn1 [Compound 21]
13 | < 50 | 50 to 79 | < 50 | D (category D for 50-79) | 50 to 79 | < 50 | < 50 | 50 to 79 | ≥ 95 | 50 to 79 | CNC(=O)c1cc(Oc2c(F)cc(NC(=O)c3nc(NC)sc3-c3ccc(F)cc3)cc2F)ccn1 [Compound 19]
14 | < 50 | 90 to 94 | < 50 | C (C=80%-89% at 5 um) | 80 to 89 | 80 to 89 | 50 to 79 | 90 to 94 | ≥ 95 | 90 to 94 | CSc1nc(C(=O)Nc2ccc(Oc3ccnc(-c4cnn(C)c4)c3)c(F)c2)c(-c2ccc(F)cc2)o1 [Compound 11]
15 | < 50 | < 50 | < 50 | E (category E is less than 50%) | < 50 | < 50 | < 50 | < 50 | ≥ 95 | < 50 | CSc1nc(C(=O)Nc2ccc(Oc3ccnc(C(=O)NC4COC4)c3)c(F)c2)c(-c2ccc(F)s2)o1 [Compound 28]
